Measurements as given in patent US9995734B2, “Human T cell line assay for evaluating the immunologic identity of glatiramer acetate preparations” (Mylan Inc., priority 2013, dated 2018).

Test system: panel of six GA-specific long-term human T-cell lines (222-2D8, 222-2F12, 165-F3C, 165-F6C, 205-1C4, 205-1F4)
Assay: GA-specific human T-cell line panel assay (ATP proliferation): GA test lots and altered GA lots compared with Copaxone
Format: cell-based
Settings: 4 days
Experimental: Proliferation assays, using the panel of six GA-specific long-term human T-cell lines listed in Table 78, were carried out to compare […] GA test lots, GMA/009/14 (GA Lot 009), GMA/010/14 (GA Lot 010), GMA/011/14 (GA Lot 011), GMA/012/14 (GA Lot 012), GMA/013/14 (GA Lot 013), GMA/014/14 (GA Lot 014), GA Lot 016, GMA/017/14 (GA Lot 017), GMA/018/14 (GA Lot 018), and GMA/070/14 (GA Lot 070), manufactured using standard methods, to a Copaxone reference lot.
Each T-cell line was restimulated using methods described above, using five concentrations of the reference antigen (0.5, 1, 2, 2.5, and 5 μg/ml Copaxone), the same five concentrations of test antigen (the nine GA test lots), and a no antigen control, in the presence of 5×10^4 mitomycin-treated autologous B-LCL. Proliferation was measured by ATP assay after 4 days of incubation with antigen, using methods described previously.
The percentages in the last column of each table were calculated as follows: Proliferation response to test antigen minus proliferation response to control (no antigen)÷proliferation response to reference antigen minus proliferation response to control (no antigen)
The panel of six GA-specific human T-cell lines listed in Table 78 above was used to test the immunological identity of altered GA lots to Copaxone.
Proliferation assays using the panel of six GA-specific T-cell lines (Table 77) were carried out, to compare negative GA lots 051F, 054F, 055F, 057F, 058F, 059F, and 060F (test lots), to Copaxone (reference lot). Each cell line was restimulated using 5 concentrations of reference antigen (Copaxone) and test antigen (the negative GA lots), including a no antigen control (in the presence of 5×10^4 mitomycin-treated autologous B-LCL). Proliferation was measured by ATP assay after 4 days of incubation with antigen, using methods described previously.
The percentages in the last column of each table were calculated as follows: Proliferation response to test antigen minus proliferation response to control (no antigen)÷proliferation response to reference antigen minus proliferation response to control (no antigen).

glatiramer acetate [COP]
Proliferation (ATP assay), Mean (Table 95, T-cell line 165-F6C, GA conc. 2.5 μg/mL): 11,665 | Proliferation (ATP assay), Mean (Table 95, T-cell line 165-F6C, GA conc. 5 μg/mL): 30,422 | Proliferation (ATP assay), Mean (Table 95, T-cell line 205-1C4, GA conc. 0.5 μg/mL): 13,267 | Proliferation (ATP assay), Mean (Table 95, T-cell line 205-1C4, GA conc. 1 μg/mL): 26,848 | Proliferation (ATP assay), Mean (Table 95, T-cell line 205-1C4, GA conc. 2 μg/mL): 142,528 | Proliferation (ATP assay), Mean (Table 95, T-cell line 205-1C4, GA conc. 2.5 μg/mL): 159,785 | Proliferation (ATP assay), Mean (Table 95, T-cell line 205-1C4, GA conc. 5 μg/mL): 171,452 | Proliferation (ATP assay), Mean (Table 95, T-cell line 205-1F4, GA conc. 0.5 μg/mL): 6,984 | Proliferation (ATP assay), Mean (Table 95, T-cell line 205-1F4, GA conc. 1 μg/mL): 15,174 | Proliferation (ATP assay), Mean (Table 95, T-cell line 205-1F4, GA conc. 2 μg/mL): 46,598 | Proliferation (ATP assay), Mean (Table 95, T-cell line 205-1F4, GA conc. 2.5 μg/mL): 51,372 | Proliferation (ATP assay), Mean (Table 95, T-cell line 205-1F4, GA conc. 5 μg/mL): 61,252 | Proliferation (ATP assay), Mean (Table 95, T-cell line 222-2D8, GA conc. 0.5 μg/mL): 13,958 | Proliferation (ATP assay), Mean (Table 95, T-cell line 222-2D8, GA conc. 1 μg/mL): 87,807 | Proliferation (ATP assay), Mean (Table 95, T-cell line 222-2D8, GA conc. 2 μg/mL): 142,231 | Proliferation (ATP assay), Mean (Table 95, T-cell line 222-2D8, GA conc. 2.5 μg/mL): 140,804 | Proliferation (ATP assay), Mean (Table 95, T-cell line 222-2D8, GA conc. 5 μg/mL): 147,182 | Proliferation (ATP assay), Mean (Table 95, T-cell line 222-2F12, GA conc. 0.5 μg/mL): 3,580 | Proliferation (ATP assay), Mean (Table 95, T-cell line 222-2F12, GA conc. 1 μg/mL): 42,304 | Proliferation (ATP assay), Mean (Table 95, T-cell line 222-2F12, GA conc. 2 μg/mL): 108,046 | Proliferation (ATP assay), Mean (Table 95, T-cell line 222-2F12, GA conc. 2.5 μg/mL): 115,182 | Proliferation (ATP assay), Mean (Table 95, T-cell line 222-2F12, GA conc. 5 μg/mL): 123,169 | Proliferation (ATP assay), Mean (Table 96, T-cell line 165-F3C, GA conc. 0.5 μg/mL): 2,577 | Proliferation (ATP assay), Mean (Table 96, T-cell line 165-F3C, GA conc. 1 μg/mL): 5,743 | Proliferation (ATP assay), Mean (Table 96, T-cell line 165-F3C, GA conc. 2 μg/mL): 16,415 | Proliferation (ATP assay), Mean (Table 96, T-cell line 165-F3C, GA conc. 2.5 μg/mL): 20,446 | Proliferation (ATP assay), Mean (Table 96, T-cell line 165-F3C, GA conc. 5 μg/mL): 32,600 | Proliferation (ATP assay), Mean (Table 96, T-cell line 165-F6C, GA conc. 0.5 μg/mL): 2,228 | Proliferation (ATP assay), Mean (Table 96, T-cell line 165-F6C, GA conc. 1 μg/mL): 4,270 | Proliferation (ATP assay), Mean (Table 96, T-cell line 165-F6C, GA conc. 2 μg/mL): 15,430 | Proliferation (ATP assay), Mean (Table 96, T-cell line 165-F6C, GA conc. 2.5 μg/mL): 28,942 | Proliferation (ATP assay), Mean (Table 96, T-cell line 165-F6C, GA conc. 5 μg/mL): 45,836 | Proliferation (ATP assay), Mean (Table 96, T-cell line 205-1C4, GA conc. 0.5 μg/mL): 11,790 | Proliferation (ATP assay), Mean (Table 96, T-cell line 205-1C4, GA conc. 1 μg/mL): 26,004 | Proliferation (ATP assay), Mean (Table 96, T-cell line 205-1C4, GA conc. 2 μg/mL): 102,672 | Proliferation (ATP assay), Mean (Table 96, T-cell line 205-1C4, GA conc. 2.5 μg/mL): 124,300 | Proliferation (ATP assay), Mean (Table 96, T-cell line 205-1C4, GA conc. 5 μg/mL): 129,908 | Proliferation (ATP assay), Mean (Table 96, T-cell line 205-1F4, GA conc. 0.5 μg/mL): 8,158 | Proliferation (ATP assay), Mean (Table 96, T-cell line 205-1F4, GA conc. 1 μg/mL): 17,491 | Proliferation (ATP assay), Mean (Table 96, T-cell line 205-1F4, GA conc. 2 μg/mL): 51,613 | Proliferation (ATP assay), Mean (Table 96, T-cell line 205-1F4, GA conc. 2.5 μg/mL): 60,244 | Proliferation (ATP assay), Mean (Table 96, T-cell line 205-1F4, GA conc. 5 μg/mL): 54,345 | Proliferation (ATP assay), Mean (Table 96, T-cell line 222-2D8, GA conc. 0.5 μg/mL): 2,785 | Proliferation (ATP assay), Mean (Table 96, T-cell line 222-2D8, GA conc. 1 μg/mL): 28,970 | Proliferation (ATP assay), Mean (Table 96, T-cell line 222-2D8, GA conc. 2 μg/mL): 76,089 | Proliferation (ATP assay), Mean (Table 96, T-cell line 222-2D8, GA conc. 2.5 μg/mL): 90,666 | Proliferation (ATP assay), Mean (Table 96, T-cell line 222-2D8, GA conc. 5 μg/mL): 99,491 | Proliferation (ATP assay), Mean (Table 96, T-cell line 222-2F12, GA conc. 0.5 μg/mL): 2,404 | Proliferation (ATP assay), Mean (Table 96, T-cell line 222-2F12, GA conc. 1 μg/mL): 11,359 | Proliferation (ATP assay), Mean (Table 96, T-cell line 222-2F12, GA conc. 2 μg/mL): 78,880 | Proliferation (ATP assay), Mean (Table 96, T-cell line 222-2F12, GA conc. 2.5 μg/mL): 95,825 | Proliferation (ATP assay), Mean (Table 96, T-cell line 222-2F12, GA conc. 5 μg/mL): 107,930
